Assay results: US20240148821A1, “PHARMACEUTICAL USE OF CYCLIC PEPTIDE COMPOUND” (CHUGAI SEIYAKU KABUSHIKI KAISHA, priority 2021, published 2024)
Numbered stars: 1 amine (or outer) side, 2 acyl side, 3 side chain; on linkers, the order of the positions; unused ones are H or OH. Bridge positions count the residues as written; N and C are the ends. Square brackets hold non-standard residues; d marks the D form. Peptide text beside a SMILES is read from it. * marks the point of attachment. NMeAbu(3,3-F2-piperidino) = CN[C@@H](CCN1CCCC(F)(F)C1)C(=O)O; hPhe(3-Cl-4-CF3) = N[C@@H](CCc1ccc(C(F)(F)F)c(Cl)c1)C(=O)O; hPhe(3-F,4-CF3) = N[C@@H](CCc1ccc(C(F)(F)F)c(F)c1)C(=O)O; Pro(cis-4-Ph) = O=C(O)[C@@H]1C[C@H](c2ccccc2)CN1; NMePhe(3-Cl) = CN[C@@H](Cc1cccc(Cl)c1)C(=O)O; NMePhe(4-Cl) = CN[C@@H](Cc1ccc(Cl)cc1)C(=O)O; X51 = CN([C@@](C)(Cc1ccccc1)C(=O)[*:2])[*:1]; NMePhe(2-F) = CN[C@@H](Cc1ccccc1F)C(=O)O; NMeGly(cPent) = CN[C@H](C(=O)O)C1CCCC1; Phe(3-I) = N[C@@H](Cc1cccc(I)c1)C(=O)O; NMeY = CN[C@@H](Cc1ccc(O)cc1)C(=O)O; Pip(4-oxo) = O=C1CCN[C@H](C(=O)O)C1; NMeCha = CN[C@@H](CC1CCCCC1)C(=O)O; NMeChg = CN[C@H](C(=O)O)C1CCCCC1; NMeF = CN[C@@H](Cc1ccccc1)C(=O)O; NMeD = CN[C@@H](CC(=O)O)C(=O)O; NMeL = CN[C@@H](CC(C)C)C(=O)O; NMeV = CN[C@H](C(=O)O)C(C)C; d(β3hA) = C[C@@H](N)CC(=O)O; NMeA = CN[C@@H](C)C(=O)O; Nle = CCCC[C@H](N)C(=O)O; Piperidide = C1CCN(*)CC1; Ac5c = NC1(C(=O)O)CCCC1; Aze = O=C(O)[C@@H]1CCN1; Sar = CNCC(=O)O

tested on: Human pancreatic cancer cell line AsPC-1 (G12D mutation Kras); assay: AsPC-1 cell growth inhibition (AsPC-1 CGI); assay type: cell-based; details: read-out: AsPC-1 cell growth inhibition, 50% growth inhibitory concentration (IC50 value); 96 hours, CellTiter-Glo, values classified in ranges
Procedure: Test compounds were serially dilated with dimethyl sulfoxide, and 200 nL was then dispensed to a U-bottom 96-well plate using Labcyte Echo. […] The cell suspension was dispensed to a. plate containing a test compound at 100 μL per well and incubated at 37° C. in a 5% carbon dioxide gas incubator. 96 hours later, 80 μL of CellTiter-Glo (Promega) was added to each well and fluorescence was measured.

Row | SMILES | IC50 [nM]
1 | CCCC[C@@H]1NC(=O)[C@H](Cc2cccc(I)c2)NC(=O)CN(C)C(=O)[C@H](Cc2ccc(Cl)cc2)N(C)C(=O)CN(C)C(=O)CN(C)C(=O)[C@H]([C@@H](C)CC)NC(=O)[C@H](CC(C)C)N(C)C(=O)C[C@@H](C(=O)N2CCCCC2)N(C)C(=O)[C@H](CC(C)C)NC(=O)[C@H](Cc2cccc(Cl)c2)N(C)C1=O [Compound 1044] ([NMeL]I[Sar][Sar][NMePhe(4-Cl)][Sar][Phe(3-I)][Nle][NMePhe(3-Cl)]L[NMeD]-Piperidide; lactam N-11) | > 500
2 | CC[C@H](C)[C@@H]1NC(=O)[C@H](CC(C)C)N(C)C(=O)C[C@@H](C)NC(=O)[C@H](C(C)C)N(C)C(=O)C2(CCCC2)NC(=O)[C@@H]2CCCN2C(=O)[C@H](CCc2ccc(C(F)(F)F)c(Cl)c2)NC(=O)CN(C)C(=O)[C@H](CC2CCCCC2)N(C)C(=O)[C@@H]2CCCN2C(=O)CN(C)C1=O [Compound 1050] (cyclo([Ac5c][NMeV][d(β3hA)][NMeL]I[Sar]P[NMeCha][Sar][hPhe(3-Cl-4-CF3)]P)) | > 500
3 | CC[C@H](C)[C@@H]1NC(=O)[C@H](CC(C)C)N(C)C(=O)C[C@@H](C(=O)N2CCCCC2)N(C)C(=O)[C@H](C2CCCCC2)N(C)C(=O)C2(CCCC2)NC(=O)[C@@H]2C[C@H](c3ccccc3)CN2C(=O)[C@H](CCc2ccc(C(F)(F)F)c(Cl)c2)NC(=O)CN(C)C(=O)[C@H](CC2CCCCC2)N(C)C(=O)[C@@H]2CCN2C(=O)[C@H](C)N(C)C1=O [Compound 1053] ([NMeL]I[NMeA][Aze][NMeCha][Sar][hPhe(3-Cl-4-CF3)][Pro(cis-4-Ph)][Ac5c][NMeChg][NMeD]-Piperidide; lactam N-11) | > 500
4 | CCCC[C@@H]1NC(=O)[C@H](Cc2cccc(I)c2)NC(=O)CN(C)C(=O)[C@H](Cc2ccc(OC)cc2)N(C)C(=O)[C@@H]2CCN2C(=O)CN(C)C(=O)[C@H]([C@@H](C)CC)NC(=O)[C@H](CC(C)C)N(C)C(=O)C[C@@H](C(=O)N2CCCCC2)N(C)C(=O)[C@H](CC(C)C)NC(=O)[C@](C)(Cc2ccccc2)N(C)C1=O [Compound 1058] ([NMeL]I[Sar][Aze][NMeY](Me)[Sar][Phe(3-I)][Nle][X51]L[NMeD]-Piperidide; lactam N-11) | > 500
5 | CC[C@H](C)[C@@H]1NC(=O)[C@H](CC(C)C)N(C)C(=O)C[C@@H](C(=O)N2CCCCC2)N(C)C(=O)[C@H](CC(C)C)N(C)C(=O)C2(CCCC2)NC(=O)[C@@H]2CCCN2C(=O)[C@H](CCc2ccc(C(F)(F)F)c(F)c2)NC(=O)CN(C)C(=O)[C@H](Cc2ccc(Cl)cc2)N(C)C(=O)CN(C)C(=O)CN(C)C1=O [Compound 1061] ([NMeL]I[Sar][Sar][NMePhe(4-Cl)][Sar][hPhe(3-F,4-CF3)]P[Ac5c][NMeL][NMeD]-Piperidide; lactam N-11) | > 500
6 | CC[C@H](C)[C@@H]1NC(=O)[C@H](CC(C)C)N(C)C(=O)C[C@@H](C(=O)N(C)C)N(C)C(=O)[C@H](C2CCCC2)N(C)C(=O)C2(CCCC2)NC(=O)[C@H](Cc2ccc(Cl)cc2)N(C)C(=O)[C@H](CCc2ccc(C(F)(F)F)c(Cl)c2)NC(=O)CN(C)C(=O)[C@H](CC2CCCCC2)N(C)C(=O)[C@@H]2CCN2C(=O)[C@H](C)N(C)C1=O [Compound 1063] ([NMeL]I[NMeA][Aze][NMeCha][Sar][hPhe(3-Cl-4-CF3)][NMePhe(4-Cl)][Ac5c][NMeGly(cPent)][NMeD]-NMe2; lactam N-11) | > 500
7 | CC[C@H](C)[C@@H]1NC(=O)[C@H](C)N(C)C(=O)C[C@@H](C)NC(=O)[C@H](C2CCCC2)N(C)C(=O)C2(CCCC2)NC(=O)[C@@H]2CCCN2C(=O)[C@H](CCc2ccc(C(F)(F)F)c(Cl)c2)NC(=O)CN(C)C(=O)[C@H](Cc2ccccc2F)N(C)C(=O)[C@@H]2CCCN2C(=O)CN(C)C1=O [Compound 1077] (cyclo([Ac5c][NMeGly(cPent)][d(β3hA)][NMeA]I[Sar]P[NMePhe(2-F)][Sar][hPhe(3-Cl-4-CF3)]P)) | > 500
8 | CC[C@H](C)[C@@H]1NC(=O)[C@H](C)N(C)C(=O)C[C@@H](C)NC(=O)[C@H](C(C)C)N(C)C(=O)[C@H](Cc2ccccc2)N(C)C(=O)[C@H](CC(C)C)N(C)C(=O)[C@H](CCc2ccc(C(F)(F)F)c(Cl)c2)NC(=O)CN(C)C(=O)[C@H](Cc2ccc(Cl)cc2)N(C)C(=O)CN(C)C(=O)CN(C)C1=O [Compound 1079] (cyclo(I[Sar][Sar][NMePhe(4-Cl)][Sar][hPhe(3-Cl-4-CF3)][NMeL][NMeF][NMeV][d(β3hA)][NMeA])) | > 500
9 | CC[C@H](C)[C@@H]1NC(=O)[C@H](CC(C)C)N(C)C(=O)C[C@@H](C(=O)N(C)C)N(C)C(=O)[C@H](C2CCCC2)N(C)C(=O)[C@H](C)NC(=O)[C@H](CCN2CCCC(F)(F)C2)N(C)C(=O)[C@H](CCc2ccc(C(F)(F)F)c(Cl)c2)NC(=O)CN(C)C(=O)[C@H](CC2CCCCC2)N(C)C(=O)[C@@H]2CCN2C(=O)[C@H](C)N(C)C1=O [Compound 1081] ([NMeL]I[NMeA][Aze][NMeCha][Sar][hPhe(3-Cl-4-CF3)][NMeAbu(3,3-F2-piperidino)]A[NMeGly(cPent)][NMeD]-NMe2; lactam N-11) | > 500
10 | CC[C@H](C)[C@@H]1NC(=O)[C@H](CC(C)C)N(C)C(=O)C[C@@H](C(=O)N2CCCCC2)N(C)C(=O)[C@H](C2CCCCC2)N(C)C(=O)C2(CCCC2)NC(=O)[C@@H]2CC(=O)CCN2C(=O)[C@H](CCc2ccc(C(F)(F)F)c(Cl)c2)NC(=O)CN(C)C(=O)[C@H](CC2CCCCC2)N(C)C(=O)CN(C)C(=O)CN(C)C1=O [Compound 1089] ([NMeL]I[Sar][Sar][NMeCha][Sar][hPhe(3-Cl-4-CF3)][Pip(4-oxo)][Ac5c][NMeChg][NMeD]-Piperidide; lactam N-11) | > 500
